{"source": "patent US20060074108A1", "about": "“Matrix metalloprotease (MMP) inhibitors and their application in cosmetic and pharmaceutical composition” (Bioderm Research, priority 2004, published 2006)", "key": {"TRP-2": {"system": "TRP-2", "assay": "tyrosinase enzyme based model: inhibition of color formation from the action of TRP-2 on tyrosine, spectrophotometric rate kinetics", "assay_type": "biochemical", "conditions": "TRP-2 model extended as predictive to MMP-2 and MMP-9 inhibition, wound healing application", "text": "It is based on the inhibition of a tyrosinase enzyme based model system, for example Canters et al., “Kinetic and paramagnetic NMR investigations of the inhibition of Streptomyces antibioticus tyosinase”, Journal of Molecular Catalysis, B: Enzymatics, vol. 8, 27-35 (2000). Tyrosinase is a copper-based monooxygenase enzyme that catalyzes the hydroxylation of monophenols (hydroxybenzenes) and the oxidation of ortho-diphenols to ortho-quinones. The active-site of tyrosinase is known to contain two copper ions (CuA and CuB). […] The regions around these copper-binding ligands are well conserved. Moreover, the distance between these two copper ions is […] [(van Amsterdam et al., Angewandte Chemie, 42: 62-64 (2003); Bubacco et al., J. Biol. Chem., 181-194 (2003)]. At least two proteins related to tyrosinase are known to exist in mammals, and include TRP-1, which is responsible for the conversion of 5,6-dihydroxyindole-2-carboxylic acid (DHICA) to indole-5,6-quinone-2-carboxylic acid (IQCA) or indole-5,6-quinone (IQ); and TRP-2, which is the melanogenic enzyme DOPAchrome tautomerase that catalyzes the conversion of DOPAchrome to DHICA. TRP-2 differs from tyrosinases and TRP-1 in that it binds two zinc ions instead of copper. Other proteins that belong to this family are plant polyphenol oxidases (PPO), which catalyze the oxidation of mono- and ortho-diphenols to ortho-diquinone. […] The colorless tyrosine is converted into yellow/orange colored ortho-diquinone of tyrosine, which is spectrophotometrically quantitated and its rate kinetics thus established."}, "MMP-1": {"target": "T1, MMP-1 (Homo sapiens, UniProt P03956)", "T1 sequence (P03956 100-469)": "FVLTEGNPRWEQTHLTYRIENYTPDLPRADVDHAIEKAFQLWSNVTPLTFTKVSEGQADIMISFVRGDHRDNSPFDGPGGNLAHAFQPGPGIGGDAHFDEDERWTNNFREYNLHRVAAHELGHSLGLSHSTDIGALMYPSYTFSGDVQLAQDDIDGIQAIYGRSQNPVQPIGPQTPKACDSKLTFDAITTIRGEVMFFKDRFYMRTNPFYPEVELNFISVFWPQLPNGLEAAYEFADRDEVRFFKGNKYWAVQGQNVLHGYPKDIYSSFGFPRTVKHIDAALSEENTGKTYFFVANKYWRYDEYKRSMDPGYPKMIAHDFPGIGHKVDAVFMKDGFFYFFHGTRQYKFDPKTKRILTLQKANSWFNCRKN", "conditions": "in words; cited from earlier work"}, "MMP-13": {"target": "MMP-13 (Homo sapiens, UniProt P45452)", "conditions": "in words; cited from earlier work"}, "MMP-9": {"target": "MMP-9 (Homo sapiens, UniProt P14780)", "sequence (P14780 94-707, species assumed)": "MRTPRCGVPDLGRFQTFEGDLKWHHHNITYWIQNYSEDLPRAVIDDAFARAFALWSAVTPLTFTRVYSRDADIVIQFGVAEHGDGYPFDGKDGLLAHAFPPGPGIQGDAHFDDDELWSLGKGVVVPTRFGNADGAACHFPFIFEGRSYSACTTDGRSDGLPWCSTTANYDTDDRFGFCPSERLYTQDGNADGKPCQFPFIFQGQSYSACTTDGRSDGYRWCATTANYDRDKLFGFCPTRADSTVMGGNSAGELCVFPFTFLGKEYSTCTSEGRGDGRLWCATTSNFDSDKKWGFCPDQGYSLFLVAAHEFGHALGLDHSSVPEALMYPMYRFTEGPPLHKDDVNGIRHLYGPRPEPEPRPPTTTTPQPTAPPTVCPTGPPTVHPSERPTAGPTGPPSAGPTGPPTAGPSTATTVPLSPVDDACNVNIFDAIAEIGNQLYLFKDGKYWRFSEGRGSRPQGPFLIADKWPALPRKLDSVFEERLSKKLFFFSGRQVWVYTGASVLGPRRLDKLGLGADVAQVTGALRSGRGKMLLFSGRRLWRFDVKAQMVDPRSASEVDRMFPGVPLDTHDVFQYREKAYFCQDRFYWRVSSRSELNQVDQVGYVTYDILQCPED", "conditions": "in words; cited from earlier work"}}}
{"smiles": "OC[C@H]1O[C@@H](Oc2ccc(O)cc2)[C@H](O)[C@@H](O)[C@@H]1O", "note": "[Arbutin, reference compound]", "values": [{"measurement": "order of efficacy (acetophenones)", "setting": "TRP-2", "result": "2-Hydroxy-4-methoxyaceophenone >>>Arbutin"}]}
{"smiles": "COc1ccc(C(C)=NO)c(O)c1", "note": "[2-Hydroxy-4-methoxyaceophenone Oxime]", "values": [{"measurement": "order of efficacy (oxime derivatives)", "setting": "TRP-2", "result": "2,4-Dihydroxyacetophenone Oxime>2-Hydroxy-4-methoxyaceophenone Oxime"}]}
{"smiles": "CC(=O)c1c(O)cccc1O", "note": "[2,6-Dihydroxyacetophenone]", "values": [{"measurement": "order of efficacy (acetophenones)", "setting": "TRP-2", "result": "2,6-Dihydroxyacetophenone>2,5-Dihydroxyacetophenone"}]}
{"smiles": "CC(=NO)c1c(O)cccc1O", "note": "[2,6-Dihydroxyacetophenone Oxime]", "values": [{"measurement": "order of efficacy (oxime derivatives)", "setting": "TRP-2", "result": "2,6-Dihydroxyacetophenone Oxime>2,5-Dihydroxyacetophenone Oxime"}]}
{"smiles": "CC(=NO)c1cc(O)ccc1O", "note": "[2,5-Dihydroxyacetophenone Oxime]", "values": [{"measurement": "order of efficacy (oxime derivatives)", "setting": "TRP-2", "result": "2,6-Dihydroxyacetophenone Oxime>2,5-Dihydroxyacetophenone Oxime>2,4-Dihydroxyacetophenone Oxime"}]}
{"smiles": "CC(=NO)c1ccc(O)cc1O", "note": "[2,4-Dihydroxyacetophenone Oxime]", "values": [{"measurement": "order of efficacy (oxime derivatives)", "setting": "TRP-2", "result": "2,5-Dihydroxyacetophenone Oxime>2,4-Dihydroxyacetophenone Oxime>2-Hydroxy-4-methoxyaceophenone Oxime"}]}
{"smiles": "O=C(NCCCCN1CCOCC1)c1cc2ccccc2o1", "note": "[CL-82198]", "values": [{"measurement": "activity against MMP-1", "setting": "MMP-1", "result": "complete lack of activity"}, {"measurement": "inhibition of MMP-13", "setting": "MMP-13", "result": "weak inhibition"}, {"measurement": "activity against MMP-9", "setting": "MMP-9", "result": "complete lack of activity"}]}
{"smiles": "Cc1cc(C)c(N(Cc2ccccc2)S(=O)(=O)c2ccc(OCCNC(=O)c3cc4ccccc4o3)cc2)c(C(=O)NO)c1", "note": "[WAY-170523]", "values": [{"measurement": "inhibition of MMP-13", "setting": "MMP-13", "result": "potent"}]}
{"smiles": "COc1ccc(C(C)=O)c(O)c1", "note": "[2-Hydroxy-4-methoxyaceophenone]", "values": [{"measurement": "order of efficacy (acetophenones)", "setting": "TRP-2", "result": "2,4-Dihydroxyacetophenone>2-Hydroxy-4-methoxyaceophenone >>>Arbutin"}]}
{"smiles": "CC(=O)c1cc(O)ccc1O", "note": "[2,5-Dihydroxyacetophenone]", "values": [{"measurement": "order of efficacy (acetophenones)", "setting": "TRP-2", "result": "2,6-Dihydroxyacetophenone>2,5-Dihydroxyacetophenone>2,4-Dihydroxyacetophenone"}]}
{"smiles": "CC(=O)c1ccc(O)cc1O", "note": "[2,4-Dihydroxyacetophenone]", "values": [{"measurement": "order of efficacy (acetophenones)", "setting": "TRP-2", "result": "2,5-Dihydroxyacetophenone>2,4-Dihydroxyacetophenone>2-Hydroxy-4-methoxyaceophenone"}]}
